Assay results from ChEMBL document CHEMBL5523681, “Lysosome-targeted Aza-BODIPY photosensitizers for anti-cancer photodynamic therapy” (Bioorg Med Chem, 2024).
Active and inactive are the calls of the source. No cut-off for these calls is given here.

How the values were obtained:
[1] = Fluorescence property of compound assessed as quantum yield in CHCl3 by spectroscopic analysis; assay type: physicochemical
HeLa [2] = assay: Antitumor activity against human HeLa cells xenografted in female BALB/c nude mouse assessed as reduction in tumor size at 2 mg/kg, iv preadministered with compound for 3 hrs followed by 54 J/cm2 light irradiation and measured after 24 days relative to control; assay type: functional; design: scale not given: the % may be the effect or the level left; conditions: time 24 day
[3] = Drug uptake in mouse B16-F10 cells measured after 4 hrs by confocal scanning microscopic analysis; assay type: ADME, cell-based; conditions: b16-f10, 4 h
[4] = Photosensitizing ability of the compound in PBS at pH 7.4 assessed as singlet oxygen production by measuring relative degradation rate of DPBF at 411 nm under photoirradiation with 90 mW/cm2 light by absorbance based assay; assay type: functional
[5] = Photosensitizing ability of the compound in DMF at pH 7 assessed as singlet oxygen quantum yield; assay type: functional
[6] = Drug localization in endoplasmic reticulum of human HeLa cells at 5 uM incubated for 3 hrs by ER-Tracker blue dye based confocal scanning microscopic analysis; assay type: ADME, subcellular
[7] = Stability of compound in CH3CN under dark condition; assay type: physicochemical
[8] = Drug uptake in liver of female BALB/c nude mouse xenografted with human HeLa cells at 2 mg/kg, iv measured after 3 hrs by fluorescence imaging analysis; assay type: ADME, organism-based; conditions: in vivo
[9] = Drug uptake in lung of female BALB/c nude mouse xenografted with human HeLa cells at 2 mg/kg, iv measured after 3 hrs by fluorescence imaging analysis; assay type: ADME, organism-based; conditions: in vivo
[10] = Dark toxicity in human HeLa cells incubated for 3 hrs by CCK-8 assay; assay type: cell-based
[11] = Stability of compound in DMF under dark condition; assay type: physicochemical
[12] = Ratio of singlet oxygen quantum yield in DMF at pH 5.2 in presence of HCl to singlet oxygen quantum yield in DMF at pH 7; assay type: functional
B16-F10 = assay: Cytotoxicity against mouse B16-F10 cells preincubated with compound for 3 hrs followed by 81 J/cm2 light irradiation and measured after 24 hrs by CCK8 assay; assay type: functional, cell-based; conditions: B16-F10, light or radiation study
[13] = Dark toxicity in human HepG2 cells incubated for 3 hrs by CCK-8 assay; assay type: cell-based
HeLa [14] = assay: Induction of ROS production in human HeLa cells assessed as increase in fluorescence intensity at 20 to 500 nM incubated for 3 hrs in presence of 81 J/cm2 light irradiation by confocal scanning microscopic analysis; assay type: functional, cell-based; conditions: dose 20-500 nM
[15] = Drug uptake in human HeLa cells assessed as increase in fluorescence intensity at 5 uM by confocal scanning microscopic analysis; assay type: ADME, cell-based; conditions: 5 h, TDE = time-dependent effect
[16] = Photosensitizing ability of the compound in PBS at pH 5.2 in presence of HCl assessed as singlet oxygen production by measuring relative degradation rate of DPBF at 411 nm under photoirradiation with 90 mW/cm2 light by absorbance based assay; assay type: functional
[17] = Drug localization in mitochondria of human HeLa cells at 5 uM incubated for 3 hrs by Mito-tracker green dye based confocal scanning microscopic analysis; assay type: ADME
[18] = Ratio of relative degradation rate of DPBF in PBS at pH 5.2 in presence of HCl to relative degradation rate of DPBF in PBS at pH 7; assay type: physicochemical; conditions: buffer
HeLa [19] = assay: Cytotoxicity against human HeLa cells preincubated with compound for 3 hrs followed by 81 J/cm2 light irradiation and measured after 24 hrs by CCK8 assay; assay type: functional, cell-based; conditions: light or radiation study
[20] = Photosensitizing ability of the compound in DMF at pH 5.2 assessed as singlet oxygen quantum yield in presence of HCl; assay type: functional
[21] = Dark toxicity in mouse B16-F10 cells incubated for 3 hrs by CCK-8 assay; assay type: cell-based
[22] = Photostability of compound in emulsified PBS buffer in presence of […] light irradiation measured upto 10 mins by absorption based assay; assay type: physicochemical
HeLa [23] = assay: Antitumor activity against human HeLa cells xenografted in female BALB/c nude mouse assessed as inhibition of tumor growth at 2 mg/kg, iv preadministered with compound for 3 hrs followed by 54 J/cm2 light irradiation and measured after 24 days; assay type: functional, organism-based; conditions: time 24.0 day
HepG2 = assay: Cytotoxicity against human HepG2 cells preincubated with compound for 3 hrs followed by 81 J/cm2 light irradiation and measured after 24 hrs by CCK8 assay; assay type: functional, cell-based; conditions: HepG2, light or radiation study
[24] = Drug uptake in female BALB/c nude mouse xenografted with human HeLa cells at 2 mg/kg, iv measured after 3 hrs by fluorescence imaging analysis; assay type: ADME, organism-based; conditions: in vivo
[25] = Fluorescence property of compound assessed as quantum yield; assay type: physicochemical
[26] = Toxicity in female BALB/c nude mouse xenografted with human HeLa cells assessed as decrease in body weight at 2 mg/kg, iv preadministered with compound for 3 hrs followed by 54 J/cm2 light irradiation and measured after 24 days; assay type: organism-based; conditions: in vivo, 576 h, time 24 day
[27] = Stability of compound in emulsified PBS buffer under dark condition; assay type: physicochemical
[28] = Drug localization in lysosome of human HeLa cells at 5 uM incubated for 3 hrs by Lyso-tracker blue dye based confocal scanning microscopic analysis; assay type: ADME, subcellular
[29] = Drug uptake in spleen of female BALB/c nude mouse xenografted with human HeLa cells at 2 mg/kg, iv measured after 3 hrs by fluorescence imaging analysis; assay type: ADME, organism-based; conditions: in vivo
[30] = Drug localization in mitochondria of human HeLa cells at 5 uM incubated for 2 hrs by Mito-tracker green dye based confocal scanning microscopic analysis; assay type: ADME
[31] = Drug localization in endoplasmic reticulum of human HeLa cells at 5 uM incubated for 2 hrs by ER-Tracker blue dye based confocal scanning microscopic analysis; assay type: ADME, subcellular
[32] = Toxicity in female BALB/c nude mouse xenografted with human HeLa cells assessed as decrease in body weight at 2 mg/kg, iv preadministered with compound for 3 hrs followed by 54 J/cm2 light irradiation and measured after 10 days; assay type: organism-based; conditions: in vivo, 240 h, time 10 day
MRC5 = assay: Cytotoxicity against human MRC5 cells in presence of 16 J/cm^2 light irradiation; assay type: functional, cell-based; conditions: MRC5, light or radiation study

Row | SMILES | Stability [7] | Stability [11] | Ratio [18] | Stability [22] | Stability [27] | Activity [4] | Activity [5] | IC50 at 3 h [10] | Ratio [12] | IC50 (B16-F10) | IC50 at 3 h [13] | Activity [16] | IC50 (HeLa [19]) | Activity [20] | IC50 at 3 h [21] | Activity (HeLa [23]) | IC50 (HepG2) | other results
1 | COc1ccc(C2=N/C(=N\c3[nH]c(-c4ccc(OC)cc4)cc3-c3ccccc3)C(c3ccccc3)=C2)cc1 | – | – | – | – | – | – | – | – | – | – | – | – | – | – | – | – | – | Activity [1]: 0.36
2 | COc1ccc(C2=[N+]3C(=Nc4c(-c5ccccc5)cc(-c5ccc(OC)cc5)n4[B-]3(F)F)C(c3ccccc3)=C2I)cc1 | – | – | 1.01 | Stable | – | 1.18 | 0.52 | > 50000 nM | 0.98 | 155 nM | > 50000 nM | 1.19 | 26.7 nM | 0.51 | > 50000 nM | Active | 38.6 nM | Drug uptake [30]: Not Active; Drug uptake [31]: Not Active; Activity [26]: Non-Toxic
3 | C=Cc1c(C)c2cc3nc(c(CC(=O)O)c4[nH]c(cc5nc(cc1[nH]2)C(C)=C5CC)c(C)c4C(=O)O)[C@@H](CCC(=O)O)[C@@H]3C [CHLORIN E6] | – | – | – | – | – | – | – | – | – | – | – | – | – | – | – | Active | – | Activity [32]: Toxic
4 | CCN(CC)Cc1ccc(C2=C(I)C(c3ccc(OC)cc3)=[N+]3C2=Nc2c(-c4ccccc4)c4c(n2[B-]3(F)F)-c2ccc(OC)cc2CC4)cc1 | Stable | Stable | 1.44 | Stable | Stable | 0.84 | 0.44 | > 50000 nM | 1.16 | 15 nM | > 50000 nM | 1.21 | 6.7 nM | 0.51 | > 50000 nM | – | 14.1 nM | –
5 | CCN(CC)Cc1ccc(C2=C(I)C(c3ccc(OC)cc3)=[N+]3C2=Nc2c(-c4ccccc4)c(I)c(-c4ccc(OC)cc4)n2[B-]3(F)F)cc1 | Unstable | Unstable | 1.13 | Unstable | Unstable | 0.87 | 0.58 | > 50000 nM | 1.28 | 78.6 nM | 49400 nM | 0.98 | 60.8 nM | 0.74 | 49900 nM | – | 132 nM | –

The next lines start with results.

Row | Stability [7] | Stability [11] | Ratio [18] | Stability [22] | Stability [27] | SMILES | Activity [4] | Activity [5] | IC50 at 3 h [10] | Ratio [12] | IC50 (B16-F10) | IC50 at 3 h [13] | Activity [16] | IC50 (HeLa [19]) | Activity [20] | IC50 at 3 h [21] | Activity (HeLa [23]) | IC50 (HepG2) | other results
6 | Stable | Stable | 1.36 | Stable | Stable | CCN(CC)Cc1ccc(C2=C(I)C(c3ccc(OC)cc3)=[N+]3C2=Nc2c(-c4ccc(CN(CC)CC)cc4)cc(-c4ccc(OC)cc4)n2[B-]3(F)F)cc1 | 1.07 | 0.44 | > 50000 nM | 1.48 | 7.9 nM | > 50000 nM | 1.45 | 5.3 nM | 0.65 | > 50000 nM | Active | 15.1 nM | Activity (HeLa [2]): 60%; Drug uptake [3]: Active; Drug uptake [6]: Not Active; Drug uptake [8]: Active; Drug uptake [9]: Active; Activity (HeLa [14]): Active; Drug uptake [15]: Tde; Drug uptake [17]: Not Active; Drug uptake [24]: Active; Activity [25]: 0.05; Activity [26]: Non-Toxic; Drug uptake [28]: Active; Drug uptake [29]: Active
7 | Unstable | Unstable | 1.08 | Unstable | Unstable | CCN(CC)Cc1ccc(C2=C(Br)C(c3ccc(OC)cc3)=[N+]3C2=Nc2c(-c4ccc(CN(CC)CC)cc4)c(Br)c(-c4ccc(OC)cc4)n2[B-]3(F)F)cc1 | 1.06 | 0.25 | 22000 nM | 2.6 | 20.8 nM | 23500 nM | 1.15 | 44.9 nM | 0.65 | 33100 nM | – | 70.6 nM | EC50 (MRC5): 5.8 nM
8 | Unstable | Unstable | 1.2 | Unstable | Unstable | CCN(CC)Cc1ccc(C2=C(I)C(c3ccc(OC)cc3)=[N+]3C2=Nc2c(-c4ccc(CN(CC)CC)cc4)c(I)c(-c4ccc(OC)cc4)n2[B-]3(F)F)cc1 | 0.91 | 0.61 | 26100 nM | 1.23 | 73.5 nM | 28900 nM | 1.09 | 51.1 nM | 0.75 | 49600 nM | – | 73.5 nM | –
